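All cell lines were grown in 96-well plates and treated with compound for 48 hours. TGI: concentration producing complete growth inhibition.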
Tests used:
Experiment in all cases: inhibition of tumour cell growth, NCI panel, 48 h
DLD-1 colon = tested on: DLD-1 colon
RXF-631 renal = tested on: RXF-631 renal
SNB-78 CNS = tested on: SNB-78 CNS
M19-MEL melanoma = tested on: M19-MEL melanoma
XF 498 CNS = tested on: XF 498 CNS
KM20L2 colon = tested on: KM20L2 colon
DMS 273 small cell lung = tested on: DMS 273 small cell lung
HOP-18 NSCLC = tested on: HOP-18 NSCLC
MDA-N = tested on: MDA-N

Compound	TGI (DLD-1 colon)	TGI (RXF-631 renal)	TGI (SNB-78 CNS)	TGI (M19-MEL melanoma)	TGI (XF 498 CNS)	TGI (KM20L2 colon)	TGI (DMS 273 small cell lung)	TGI (HOP-18 NSCLC)	TGI (MDA-N)
CN(C)CCC[N+]1=Nc2cccc3cccc(c23)N1	35.8 µM	> 100 µM	> 100 µM	> 100 µM	> 100 µM	> 100 µM	59.5 µM	> 100 µM	–
N#CC(/C(CCCC(=O)Nc1cccc([N+](=O)[O-])c1)=N\NC(=O)c1c(O)ccc2ccccc12)c1nc2ccccc2s1 (stereo not drawn)	> 100 µM	–	> 100 µM	46.6 µM	> 100 µM	> 100 µM	68.3 µM	> 100 µM	–
CCOC(=O)C1C(=O)CC(=O)C2CCCCC21 (stereo not drawn)	> 100 µM	> 100 µM	> 100 µM	–	> 100 µM	–	> 100 µM	–	–
CC1(C)C(=O)/C=C\C(=O)C(C)(C)C(=O)/C=C\C(=O)C(C)(C)C2=CC=C(O2)C(C)(C)C(=O)/C=C\C1=O	3.61 µM	> 52.7 µM	15.7 µM	13.6 µM	3.86 µM	28.3 µM	10.1 µM	37.1 µM	19.1 µM
CN(C)N=Nc1ccc(S(N)(=O)=O)cc1	> 100 µM	–	–	> 100 µM	> 100 µM	> 100 µM	> 100 µM	> 100 µM	–
CC12CCc3ccccc3C1=NNC(=O)C2 (stereo not drawn)	> 100 µM	–	> 100 µM	> 100 µM	> 100 µM	> 100 µM	> 100 µM	> 100 µM	–
CC(=O)CC(=O)Nc1ccccc1C(F)(F)F	> 100 µM	> 100 µM	> 100 µM	> 100 µM	> 100 µM	> 100 µM	–	–	–
CC(=O)Nc1ccc(/C=c2\sc3nnc(-c4cccnc4)n3c2=O)cc1	40.7 µM	55.2 µM	> 100 µM	37.4 µM	–	38.6 µM	68.5 µM	55.6 µM	–
CN1CCN(c2nc(N)c(Br)c(Cl)n2)CC1	> 100 µM	–	> 100 µM	> 100 µM	> 100 µM	> 100 µM	> 100 µM	–	–
O=C(CCc1ccccc1)CC1OC(=O)C(Cl)=C1Cl (stereo not drawn)	32.8 µM	–	> 100 µM	33.8 µM	41.4 µM	26.5 µM	44 µM	59.6 µM	–
Cc1[nH]c2cc([N+](=O)[O-])ccc2c1[N+](=O)[O-]	> 100 µM	–	–	–	50 µM	> 100 µM	–	–	–
CCN(CC)c1ccc(C2N3CCCCC3[C@@H]3c4[nH]c5ccccc5c4CCN23)cc1 (stereo partly drawn)	> 100 µM	–	61.3 µM	57.1 µM	41 µM	> 100 µM	> 100 µM	> 100 µM	–
